Source: US20070059364A1, “Active substance combination comprising a compound with npy receptor affinity and a compound with 5-ht6 receptor affinity” (Laboratorios Del Dr. Esteve S.A., priority 2003, published 2007)

| melting point | Compound |
| --- | --- |
| 203 to 205 °C | CN(C)CCc1c[nH]c2ccc(NS(=O)(=O)c3cccc4ccccc34)cc12 [Example 8c, N-[3-(2-dimethylaminoethyl)-1H-indol-5-yl]naphthalene-1-sulphonamide] |
| 95 to 100 °C | CN(C)CCn1ccc2c(NS(=O)(=O)c3c(Cl)nc4sccn34)cccc21 [Example 8d, 6-chloro-N-[1-(2-dimethylaminoethyl)-1H-indol-4-yl]-imidazo[2,1-b]thiazole-5-sulfonamide] |
| 126 to 128 °C | Cc1ccc(S(=O)(=O)Nc2ccc3c(ccn3CCN(C)C)c2)cc1 [Example 8e, N-[1-(2-dimethylaminoethyl)-1H-indole-5-yl]-4-methylbenzenesulfonamide] |
| 150 to 159 °C | CN(C)CCn1ccc2ccc(NS(=O)(=O)c3cc(Cl)cc(Cl)c3)cc21 [Example 8f, N-[1-(2-Dimethylaminoethyl)-1H-indol-6-yl]-3,5-dichlorobenzenesulfonamide] |
| 46 to 49 °C | O=S(=O)(CCc1cccc2ccccc12)Nc1cccc2ccn(CCN3CCCC3)c12 [Example 8g, 2-(naphth-1-yl)-N-(1-(2-(pyrrolidin-1-yl)ethyl)-1H-indol-7-yl)ethansulfonamide] |
| 145 to 147 °C | CN(C)CCn1ccc2cc(NS(=O)(=O)c3ccc(Cl)s3)ccc21 [Example 9e, N-[1-(2-dimethylaminoethyl)-1H-indole-5-yl]-5-chlorothiophene-2-sulfonamide] |
| 50 to 52 °C | CN(C)CCn1ccc2cc(NS(=O)(=O)c3c(Cl)nc4sccn34)ccc21 [Example 11e, N-[1-(2-dimethylaminoethyl)-1H-indole-5-yl]-6-chloroimidazo[2,1-b]thiazole-5-sulfonamide] |
| 254 to 256 °C | CN1CCC(c2c[nH]c3ccc(NS(=O)(=O)c4cccc5ccccc45)cc23)CC1 [Example 12c, N-[3-(1-methylpiperidin-4-yl)-1H-indol-5-yl]naphthalene-1-sulphonamide] |
| 124 to 126 °C | CN(C)CCn1ccc2cc(NS(=O)(=O)c3cc(Cl)cc(Cl)c3)ccc21 [Example 12e, N-[1-(2-dimethylaminoethyl)-1H-indole-5-yl]-3,5-dichlorobenzenesulfonamide] |

Second part, the compound before the results:

| Compound | melting point |
| --- | --- |
| Cc1c(S(=O)(=O)Nc2cccc3ccn(CCN4CCCC4)c23)sc2ccc(Cl)cc12 [Example 5g, 5-chloro-3-methyl-N-(1-(2-(pyrrolidin-1-yl)ethyl)-1H-indol-7-yl)-benzo[b]thiophen-2-sulfonamide] | 82 to 85 °C |
| CCN(CC)CCc1c[nH]c2ccc(NS(=O)(=O)c3ccc(Cl)s3)cc12 [Example 6c, N-[3-(2-diethylaminoethyl)-1H-indol-5-yl]-5-chlorothiophene-2-sulphonamide] | 180 to 181 °C |
| CN(C)CCn1ccc2cc(NS(=O)(=O)c3cccc4cccnc34)ccc21 [Example 6e, N-[1-(2-dimethylaminoethyl)-1H-indole-5-yl]-quinoline-8-sulfonamide] | 161 to 164 °C |
| O=S(=O)(Nc1cccc2ccn(CCN3CCCC3)c12)c1cccc2ccccc12 [Example 6g, N-(1-(2-(pyrrolidin-1-yl)ethyl)-1H-indol-7-yl)naphthalene-1-sulfonamide] | 196 to 199 °C |
| Cc1c(S(=O)(=O)Nc2ccc3[nH]cc(CCN(C)C)c3c2)sc2ccc(Cl)cc12 [Example 7c, N-[3-(2-dimethylaminoethyl)-1H-indol-5-yl]-5-chloro-3-methylbenzo[b]thiophene-2-sulphonamide] | 226 to 227 °C |
| CN(C)CCn1ccc2c(NS(=O)(=O)c3cc(Cl)cc(Cl)c3)cccc21 [Example 7d, N-[1-(2-dimethylaminoethyl)-1H-indole-4-yl]-3,5-dichlorobenzenesulfonamide] | 113 to 118 °C |
| CN(C)CCn1ccc2cc(NS(=O)(=O)c3ccc(Oc4ccccc4)cc3)ccc21 [Example 7e, N-[1-(2-dimethylaminoethyl)-1H-indole-5-yl]-4-phenoxybenzenesulfonamide] | 138 to 140 °C |
